Results on 49 compounds are retold here after BindingDB's records for patent US20240018157 (Schrödinger, 2024).

This experiment concerns the target T1, Mucosa-associated lymphoid tissue lymphoma translocation protein 1 (Homo sapiens, UniProt Q9UDY8).
T1 sequence (Q9UDY8 whole entry): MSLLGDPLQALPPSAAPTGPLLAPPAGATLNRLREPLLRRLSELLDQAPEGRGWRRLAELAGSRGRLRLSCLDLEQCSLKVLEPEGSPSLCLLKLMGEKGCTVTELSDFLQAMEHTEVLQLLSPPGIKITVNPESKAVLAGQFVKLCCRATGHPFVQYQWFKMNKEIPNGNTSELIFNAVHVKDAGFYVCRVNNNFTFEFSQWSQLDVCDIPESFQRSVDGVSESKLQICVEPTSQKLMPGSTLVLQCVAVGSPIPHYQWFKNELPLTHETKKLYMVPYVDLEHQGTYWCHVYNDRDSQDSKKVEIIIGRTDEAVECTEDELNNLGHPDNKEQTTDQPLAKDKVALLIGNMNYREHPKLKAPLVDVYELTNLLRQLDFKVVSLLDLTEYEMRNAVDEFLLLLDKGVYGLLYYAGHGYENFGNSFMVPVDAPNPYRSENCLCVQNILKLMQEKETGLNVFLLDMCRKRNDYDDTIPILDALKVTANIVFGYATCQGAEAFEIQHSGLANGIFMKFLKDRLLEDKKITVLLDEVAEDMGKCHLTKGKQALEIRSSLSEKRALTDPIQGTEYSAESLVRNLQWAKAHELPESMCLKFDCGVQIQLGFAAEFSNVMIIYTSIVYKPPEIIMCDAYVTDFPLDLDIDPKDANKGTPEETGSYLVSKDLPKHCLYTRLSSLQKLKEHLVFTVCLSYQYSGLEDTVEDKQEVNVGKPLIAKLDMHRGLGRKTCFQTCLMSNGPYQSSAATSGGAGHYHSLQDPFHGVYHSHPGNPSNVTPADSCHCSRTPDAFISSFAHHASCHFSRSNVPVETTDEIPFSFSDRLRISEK
Briefly: MALT1 Protease Assay 2. Here is the method: Test compounds were dissolved in 100% DMSO at stock of 10 mM, with final DMSO concentration 0.1%. Test compounds were pre-incubated with MALT1 protein for 2 h at room temperature.

Turning to `CC1(C)CN(C(=O)Nc2cnc(-n3nccn3)c(Cl)c2)c2cnc3cc(Cl)nn3c21` [US20240018157, Example 1], the IC50 (commonly the midpoint of a concentration-inhibition curve) lay within 10 to 100 nM.

The compound `C[C@@]1(C2CC2)CN(C(=O)Nc2cnc(-n3nccn3)c(Cl)c2)c2cnc3cc(Cl)nn3c21` [US20240018157, Example 4] registered an IC50 of 10 to 100 nM.

`COc1ncc(NC(=O)N2C[C@@](C)(C(F)(F)F)c3c2cnc2cc(Cl)nn32)cc1Cl` [US20240018157, Example 18] gave an IC50 of under 10 nM.

Take `C[C@@]1(C(F)(F)F)CN(C(=O)Nc2cnc(-n3ncc(CO)n3)c(Cl)c2)c2cnc3cc(Cl)nn3c21` [US20240018157, Example 24]: the IC50 was under 10 nM.

Compound `C[C@@]1(C(F)(F)F)CN(C(=O)Nc2ccnc(C(F)(F)F)c2)c2cnc3cc(Cl)nn3c21` [US20240018157, Example 27] yielded an IC50 of under 10 nM.

On to `CN(C)Cc1cnn(-c2ncc(NC(=O)N3C[C@@](C)(C(F)(F)F)c4c3cnc3cc(Cl)nn43)cc2Cl)n1` [US20240018157, Example 29], for which the half-inhibitory concentration (IC50) is 10 to 100 nM.

`Cc1cc2ncc3c(n2n1)[C@](C)(C(F)(F)F)CN3C(=O)Nc1cnc(-n2nccn2)c(Cl)c1` [US20240018157, Example 32]: the IC50 was under 10 nM.

In turn, `C[C@@]1(C(F)(F)F)CN(C(=O)Nc2cnc(-n3nccn3)c(C(F)F)c2)c2cnc3cc(Cl)nn3c21` [US20240018157, Example 35] registered an IC50 of under 10 nM.

`C[C@@]1(C(F)(F)F)CN(C(=O)Nc2cnc(-n3ccnn3)c(C(F)F)c2)c2cnc3cc(Cl)nn3c21` [US20240018157, Example 36] returned an IC50 of under 10 nM.

Compound `C[C@@]1(C(F)(F)F)CN(C(=O)Nc2cnc(-n3nccn3)c(Cl)c2)c2cnc3cc(F)nn3c21` [US20240018157, Example 39] yielded an IC50 of under 10 nM.

For the compound `C[C@@]1(C(F)(F)F)CN(C(=O)N[C@H]2CCCC(F)(F)C2)c2cnc3cc(Cl)nn3c21` [US20240018157, Example 53], the IC50 fell in the range of 100 to 1000 nM.

As to `C[C@@]1(C(F)(F)F)CN(C(=O)Nc2cnc([C@H](O)CO)c(Cl)c2)c2cnc3cc(Cl)nn3c21` [US20240018157, Example 55], the IC50 fell in the range of 10 to 100 nM.

`C[C@@]1(C(F)(F)F)CN(C(=O)Nc2cnc([C@@H](O)CO)c(Cl)c2)c2cnc3cc(Cl)nn3c21` [US20240018157, Example 56] displayed an IC50 of 100 to 1000 nM.

For the compound `C[C@@]1(C(F)(F)F)CN(C(=O)Nc2cnc(-n3cc(CO)cn3)c(Cl)c2)c2cnc3cc(Cl)nn3c21` [US20240018157, Example 57], the IC50 was under 10 nM.

Turning to `C[C@@]1(C(F)(F)F)CN(C(=O)Nc2ccnc(C(F)F)c2)c2cnc3cc(Cl)nn3c21` [US20240018157, Example 60], the IC50 was under 10 nM.

With `COc1c(Cl)cc(NC(=O)N2C[C@@](C)(C(F)(F)F)c3c2cnc2cc(Cl)nn32)nc1O[C@H]1CCNC1` [US20240018157, Example 63], the IC50 is under 10 nM.

With `C[C@@]1(C(F)(F)F)CN(C(=O)Nc2cnnc(C(F)F)c2)c2cnc3cc(Cl)nn3c21` [US20240018157, Example 65], the IC50 was in the range of 10 to 100 nM.

In turn, `COc1cnc(C(F)(F)F)cc1NC(=O)N1C[C@@](C)(C(F)(F)F)c2c1cnc1cc(Cl)nn21` [US20240018157, Example 66] came in with an IC50 of under 10 nM.

For `C[C@@]1(C(F)(F)F)CN(C(=O)Nc2cnc(C3(O)CC3)c(Cl)c2)c2cnc3cc(Cl)nn3c21` [US20240018157, Example 67], the IC50 was 100 to 1000 nM.

For `C[C@H](O)c1cc(NC(=O)N2C[C@@](C)(C(F)(F)F)c3c2cnc2cc(Cl)nn32)cc(C(F)(F)F)n1` [US20240018157, Example 68], the IC50 is 10 to 100 nM.

Consider `C[C@@H](O)c1cc(NC(=O)N2C[C@@](C)(C(F)(F)F)c3c2cnc2cc(Cl)nn32)cc(C(F)(F)F)n1` [US20240018157, Example 69], for which the IC50 was in the range of 10 to 100 nM.

`C[C@@]1(C(F)(F)F)CN(C(=O)Nc2cnc(-n3ncc([C@H](O)CO)n3)c(Cl)c2)c2cnc3cc(Cl)nn3c21` [US20240018157, Example 70] came in with an IC50 of under 10 nM.

As to `C[C@@]1(C(F)(F)F)CN(C(=O)Nc2cnc(-n3ncc([C@@H](O)CO)n3)c(Cl)c2)c2cnc3cc(Cl)nn3c21` [US20240018157, Example 71], the IC50 was under 10 nM.

For `C[C@@H](O)COc1ncc(NC(=O)N2C[C@@](C)(C(F)(F)F)c3c2cnc2cc(Cl)nn32)cc1Cl` [US20240018157, Example 74], the concentration for half-maximal inhibition (IC50) fell in the range of 10 to 100 nM.

Compound `C[C@@]1(C(F)(F)F)CN(C(=O)Nc2cc(O[C@H]3CCNC3)nc(C(F)(F)F)c2)c2cnc3cc(Cl)nn3c21` [US20240018157, Example 75] had an IC50 of 10 to 100 nM.

In turn, `C[C@H](O)c1cnn(-c2ncc(NC(=O)N3C[C@@](C)(C(F)(F)F)c4c3cnc3cc(Cl)nn43)cc2Cl)n1` [US20240018157, Example 76] registered an IC50 of under 10 nM.

`C[C@@H](O)c1cnn(-c2ncc(NC(=O)N3C[C@@](C)(C(F)(F)F)c4c3cnc3cc(Cl)nn43)cc2Cl)n1` [US20240018157, Example 77] registered an IC50 of under 10 nM.

In the case of `COCc1cnn(-c2ncc(NC(=O)N3C[C@@](C)(C(F)(F)F)c4c3cnc3cc(Cl)nn43)cc2Cl)n1` [US20240018157, Example 79], the IC50 is under 10 nM.

`C[C@@]1(C(F)(F)F)CN(C(=O)Nc2cc(N=S(C)(C)=O)nc(C(F)(F)F)c2)c2cnc3cc(Cl)nn3c21` [US20240018157, Example 83] gave an IC50 of under 10 nM.

For `C[C@@]1(C(F)(F)F)CN(C(=O)Nc2cnc(N=S(C)(C)=O)c(Cl)c2)c2cnc3cc(Cl)nn3c21` [US20240018157, Example 85], the IC50 is under 10 nM.

`C[C@@]1(C(F)(F)F)CN(C(=O)Nc2cnc(-n3nccc3C#N)c(C#N)c2)c2cnc3cc(Cl)nn3c21` [US20240018157, Example 87] came in with a 50% inhibitory concentration (IC50) of under 10 nM.

In turn, `C[C@@]1(C(F)(F)F)CN(C(=O)Nc2ccnc(C(F)F)c2)c2cnc3cc(F)nn3c21` [US20240018157, Example 88] returned an IC50 of 10 to 100 nM.

Regarding `C[C@]1(C(F)(F)F)CN(C(=O)Nc2ccnc(C(F)F)c2)c2cnc3cc(F)nn3c21` [US20240018157, Example 89], the IC50 fell in the range of 100 to 1000 nM.

In the case of `C[C@@]1(C(F)(F)F)CN(C(=O)Nc2cnc(-n3nccn3)c(C#N)c2)c2cnc3cc(F)nn3c21` [US20240018157, Example 91], the IC50 is under 10 nM.

For the compound `COc1cnn(-c2ncc(NC(=O)N3C[C@@](C)(C(F)(F)F)c4c3cnc3cc(Cl)nn43)cc2Cl)n1` [US20240018157, Example 92], the IC50 is under 10 nM.

`CCOc1cc(NC(=O)N2C[C@@](C)(C(F)(F)F)c3c2cnc2cc(Cl)nn32)cn(C(F)F)c1=O` [US20240018157, Example 93] displayed an IC50 of 10 to 100 nM.

As for `C[C@@]1(C(F)(F)F)CN(C(=O)Nc2cnn(S(C)(=O)=O)c2)c2cnc3cc(Cl)nn3c21` [US20240018157, Example 94], the IC50 was in the range of 100 to 1000 nM.

With `COC[C@@]1(C(F)(F)F)CN(C(=O)Nc2cnc(-n3nccn3)c(Cl)c2)c2cnc3cc(Cl)nn3c21` [US20240018157, Example 97], the IC50 was under 10 nM.

`COC[C@]1(C(F)(F)F)CN(C(=O)Nc2cnc(-n3nccn3)c(Cl)c2)c2cnc3cc(Cl)nn3c21` [US20240018157, Example 98] registered an IC50 of 10 to 100 nM.

`C[C@@]1(C(F)(F)F)CN(C(=O)Nc2cc(C(F)F)no2)c2cnc3cc(Cl)nn3c21` [US20240018157, Example 103]: the IC50 was 100 to 1000 nM.

The compound `C[C@@]1(C(F)(F)F)CN(C(=O)Nc2cnc(-n3nccn3)c(C(F)F)c2)c2cnc3cc(F)nn3c21` [US20240018157, Example 104] returned an IC50 of under 10 nM.

`C[C@]1(C(F)(F)F)CN(C(=O)Nc2cnc(-n3nccn3)c(C(F)F)c2)c2cnc3cc(F)nn3c21` [US20240018157, Example 105] returned an IC50 of 100 to 1000 nM.

`CN(C)C(=O)COc1ncc(NC(=O)N2C[C@@](C)(C(F)(F)F)c3c2cnc2cc(Cl)nn32)cc1C(F)F` [US20240018157, Example 108] showed an IC50 of over 1000 nM.

The compound `C[C@@]1(C(F)(F)F)CN(C(=O)Nc2cnnc(C(F)F)c2)c2cnc3cc(F)nn3c21` [US20240018157, Example 114] displayed an IC50 of over 1000 nM.

As for `C[C@]1(C(F)(F)F)CN(C(=O)Nc2cnnc(C(F)F)c2)c2cnc3cc(F)nn3c21` [US20240018157, Example 115], the IC50 lay in the range of 10 to 100 nM.

As for `C[S@+]([O-])c1ccc(NC(=O)N2C[C@@](C)(C(F)(F)F)c3c2cnc2cc(Cl)nn32)cc1C(F)F` [US20240018157, Example 116], the IC50 is under 10 nM.

The compound `C[S@@+]([O-])c1ccc(NC(=O)N2C[C@@](C)(C(F)(F)F)c3c2cnc2cc(Cl)nn32)cc1C(F)F` [US20240018157, Example 117] yielded an IC50 of 100 to 1000 nM.

In turn, `Cc1cn2ncc3c(c2n1)[C@](C)(C(F)(F)F)CN3C(=O)Nc1cnnc(C(F)F)c1` [US20240018157, Example 119] gave an IC50 of 10 to 100 nM.

Regarding `Cc1cn2ncc3c(c2n1)[C@@](C)(C(F)(F)F)CN3C(=O)Nc1cnnc(C(F)F)c1` [US20240018157, Example 120], the IC50 is over 1000 nM.
